Reference: patent publication US20100015727A1, “METHOD FOR DETERMINING TRANSPORT ACTIVITY OF A TRANSPORT PROTEIN” (BOEHRINGER INGELHEIM INTERNATIONAL GMBH, priority 2006, published 2010)

Molecular target: T1, MRP4 (Homo sapiens, UniProt O15439)
T1 construct: infected with a baculovirus construct containing the full-length cDNA encoding MRP4; made in house; host or cells: Hi5 or Sf9 insect cells (baculovirus)
T1 sequence (O15439 1-1325): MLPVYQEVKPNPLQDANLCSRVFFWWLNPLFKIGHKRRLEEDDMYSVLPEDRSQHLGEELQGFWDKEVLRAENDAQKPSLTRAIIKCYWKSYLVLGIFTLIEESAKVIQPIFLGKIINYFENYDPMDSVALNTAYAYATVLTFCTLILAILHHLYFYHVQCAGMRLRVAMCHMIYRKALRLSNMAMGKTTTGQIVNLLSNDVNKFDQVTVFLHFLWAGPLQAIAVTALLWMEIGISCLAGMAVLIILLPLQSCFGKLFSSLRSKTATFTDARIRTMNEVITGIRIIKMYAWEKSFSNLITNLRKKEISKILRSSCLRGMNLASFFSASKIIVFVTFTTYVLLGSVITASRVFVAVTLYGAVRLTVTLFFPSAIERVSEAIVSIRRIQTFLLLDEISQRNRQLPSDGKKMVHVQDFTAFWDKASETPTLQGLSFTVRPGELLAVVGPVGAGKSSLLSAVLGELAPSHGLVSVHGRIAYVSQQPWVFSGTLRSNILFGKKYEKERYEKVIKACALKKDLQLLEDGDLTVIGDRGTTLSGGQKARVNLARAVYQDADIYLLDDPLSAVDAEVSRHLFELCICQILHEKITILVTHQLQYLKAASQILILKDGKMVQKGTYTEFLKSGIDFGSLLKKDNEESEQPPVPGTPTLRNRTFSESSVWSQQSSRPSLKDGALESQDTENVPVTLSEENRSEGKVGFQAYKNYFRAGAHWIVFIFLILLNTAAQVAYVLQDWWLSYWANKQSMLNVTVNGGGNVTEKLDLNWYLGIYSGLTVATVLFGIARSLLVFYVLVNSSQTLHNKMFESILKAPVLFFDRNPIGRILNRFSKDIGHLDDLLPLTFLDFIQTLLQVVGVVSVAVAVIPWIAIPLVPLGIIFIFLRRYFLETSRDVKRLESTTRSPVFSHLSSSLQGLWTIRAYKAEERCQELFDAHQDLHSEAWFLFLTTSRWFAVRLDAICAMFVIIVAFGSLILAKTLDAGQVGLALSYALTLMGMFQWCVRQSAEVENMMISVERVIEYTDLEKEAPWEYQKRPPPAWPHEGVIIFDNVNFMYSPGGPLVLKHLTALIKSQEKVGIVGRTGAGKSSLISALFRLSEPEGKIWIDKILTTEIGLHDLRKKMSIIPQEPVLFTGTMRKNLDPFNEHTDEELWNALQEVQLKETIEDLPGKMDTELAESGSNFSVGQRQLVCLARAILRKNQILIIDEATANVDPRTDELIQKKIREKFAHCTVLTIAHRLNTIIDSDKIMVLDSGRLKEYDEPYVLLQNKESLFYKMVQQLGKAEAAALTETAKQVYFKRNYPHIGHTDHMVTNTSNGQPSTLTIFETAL
Assay: SPA assay of MRP4 transport activity (3H-folic acid uptake into membrane vesicles)
Assay type: biochemical
Settings: inhibition of MRP4 transport of 3H-folic acid into membrane vesicles from baculovirus-infected insect cells; Protein A SPA beads, anti-MRP4 rabbit antiserum
Protocol: • 1) Membrane vesicles from insect cells (Hi5 or Sf9) infected with a baculovirus construct containing the full-length cDNA encoding MRP4 are prepared as described by van Aubel et al. (van Aubel et al., 2002) with some modifications: Hi5 cells are cultured in suspension to a cell density of 1×10^6 cells/ml in Insect-Xpress serum free insect cell medium and infected with baculovirus construct containing the full-length cDNA encoding MRP4. Three days after infection, cells are collected by centrifugation at 3000 rpm for 10 min. […] Protein concentration of the membrane preparation is determined using standard methods, e.g. the BCA protein assay (Pierce, product number 23250). • 2) Determination of transport activity of MRP4: Membrane vesicles prepared in 1) are diluted in Tris/sucrose buffer to a concentration of 3.3 μg protein/μl. […] Luminescence signals are measured with the LEADSeeker or TopCount system after 30 min, 1 h, 2 h, 4 h, or up to 24 h. • 3) Calculation of inhibitory effect of a test compound: The relative transport activities of MRP4 determined in the presence of a test compound is calculated as percentage of luminescence determined in the presence of the test compound compared to luminescence determined in the absence of the test compound.

IC50: 35 µM
SMILES: OCCN(CCO)c1nc(N2CCCCC2)c2nc(N(CCO)CCO)nc(N3CCCCC3)c2n1 [Dipyridamole]
